The values below are quoted from earlier work in US20100227874A1, “REDUCTION OF OXIDATIVE STRESS DAMAGE DURING OR AFTER EXERCISE” (NESTEC S.A., priority 2007, published 2010).

Molecules are shown by their SMILES.

The data set has as its system rat adipocytes. The following applies: insulin-potentiating epididymal fat-cell assay with rat adipocytes.

For `O=C(O[C@@H]1Cc2c(O)cc(O)cc2O[C@@H]1c1cc(O)c(O)c(O)c1)c1cc(O)c(O)c(O)c1` [epigallocatechin gallate], the “Insulin activity in vitro” value is reported as “enhance insulin activity”.
Take `O=C(O[C@@H]1Cc2c(O)cc(O)cc2O[C@@H]1c1ccc(O)c(O)c1)c1cc(O)c(O)c(O)c1` [epicatechin gallate]: the “Insulin activity in vitro” value is given as “enhance insulin activity”.
